In PubChem BioAssay AID1919005 (Molecular Pharmacology Branch, DTP, NCI, 2023):

Tested on: 855422-203-R-J1-PDC complex spheroid growth
Assay: Anticancer human tumor 855422-203-R-J1-PDC patient-derived bladder carcinoma cell line growth inhibition [AhR]
Conditions: for IC50: curve of first compound; for viability, T/C: stronger effect = lower value
In short: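 Spheroids combined tumor cells with HUVEC endothelial cells and human MSCs as stroma. AhR antagonists were paired with standard or investigational drugs, each dosed in half-log steps down from near clinical Cmax, or from 10 microM where Cmax was unknown.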

[1] = second compound 0.1 µM, first compound 0.0316 µM
[2] = second compound 0.1 µM, first compound 0.1 µM
[3] = second compound 0.1 µM, first compound 0.316 µM
[4] = second compound 0.1 µM, first compound 1 µM
[5] = second compound 0.1 µM, first compound 3.16 µM
[6] = second compound 0.1 µM, first compound 10 µM
[7] = second compound 0.316 µM, first compound 0.0316 µM
[8] = second compound 0.316 µM, first compound 0.1 µM
[9] = second compound 0.316 µM, first compound 0.316 µM
[10] = second compound 0.316 µM, first compound 1 µM
[11] = second compound 0.316 µM, first compound 3.16 µM
[12] = second compound 0.316 µM, first compound 10 µM
[13] = second compound 1 µM, first compound 0.0316 µM
[14] = second compound 1 µM, first compound 0.1 µM
[15] = second compound 1 µM, first compound 0.316 µM
[16] = second compound 1 µM, first compound 1 µM
[17] = second compound 1 µM, first compound 3.16 µM
[18] = second compound 1 µM, first compound 10 µM
[19] = second compound 3.16 µM, first compound 0.0316 µM
[20] = second compound 3.16 µM, first compound 0.1 µM
[21] = second compound 3.16 µM, first compound 0.316 µM
[22] = second compound 3.16 µM, first compound 1 µM
[23] = second compound 3.16 µM, first compound 3.16 µM
[24] = second compound 3.16 µM, first compound 10 µM
[25] = second compound 10 µM, first compound 0.0316 µM
[26] = second compound 10 µM, first compound 0.1 µM
[27] = second compound 10 µM, first compound 0.316 µM
[28] = second compound 10 µM, first compound 1 µM
[29] = second compound 10 µM, first compound 3.16 µM
[30] = second compound 10 µM, first compound 10 µM
[31] = second compound 0.1 µM, first compound 0.00316 µM
[32] = second compound 0.1 µM, first compound 0.01 µM
[33] = second compound 0.316 µM, first compound 0.00316 µM
[34] = second compound 0.316 µM, first compound 0.01 µM
[35] = second compound 1 µM, first compound 0.00316 µM
[36] = second compound 1 µM, first compound 0.01 µM
[37] = second compound 3.16 µM, first compound 0.00316 µM
[38] = second compound 3.16 µM, first compound 0.01 µM
[39] = second compound 10 µM, first compound 0.00316 µM
[40] = second compound 10 µM, first compound 0.01 µM
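Further: spheroids exposed to agents for seven days before readout.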
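Wherever viability, T/C is given: percent of DMSO vehicle control luminescence viability.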

Row | Compound | IC50 (second compound 0.1 µM) [nM] | IC50 (second compound 0.316 µM) [nM] | IC50 (second compound 1 µM) [nM] | IC50 (second compound 3.16 µM) [nM] | IC50 (second compound 10 µM) [nM] | viability, T/C [1] [%] | viability, T/C [2] [%] | viability, T/C [3] [%] | viability, T/C [4] [%] | viability, T/C [7] [%] | viability, T/C [8] [%] | viability, T/C [9] [%] | viability, T/C [10] [%] | viability, T/C [13] [%] | viability, T/C [14] [%] | viability, T/C [15] [%] | viability, T/C [16] [%] | viability, T/C [19] [%] | viability, T/C [20] [%] | viability, T/C [21] [%] | other results
1 | CC(C)c1c(-c2ccccc2)nc2c(C#N)c[nH]n2c1=O + CC(CO)NC(=O)c1cc(-c2ccc(Cl)cc2)nn(-c2cnn(C)c2)c1=O | > 10000 | > 10000 | > 10000 | > 10000 | > 10000 | 103 | 100 | 95.2 | 85.6 | 93.1 | 105 | 95.8 | 105 | 103 | 106 | 104 | 99.8 | 97.3 | 106 | 99.2 | viability, T/C [5]: 92.4%; viability, T/C [6]: 91.8%; viability, T/C [11]: 98.8%; viability, T/C [12]: 92%; viability, T/C [17]: 99.6%; viability, T/C [18]: 96.5%; viability, T/C [22]: 93.6%; viability, T/C [23]: 91.3%; viability, T/C [24]: 110%; viability, T/C [25]: 86.9%; viability, T/C [26]: 90.9%; viability, T/C [27]: 91.7%; viability, T/C [28]: 98%; viability, T/C [29]: 93%; viability, T/C [30]: 92.1%
2 | COc1cccc2c1C(=O)c1c(O)c3c(c(O)c1C2=O)CC(O)(C(=O)CO)CC3OC1CC(N)C(O)C(C)O1 (stereo not given) + Cc1ccccc1N=Nc1ccc(NC(=O)c2ccnn2C)c(C)c1 | < 31.6 | < 31.6 | < 31.6 | < 31.6 | < 31.6 | 47 | 32.6 | 7.99 | 2.76 | 32 | 24.1 | 6.58 | 2.77 | 45.6 | 25.8 | 6.31 | 2.89 | 39.9 | 26.4 | 4.8 | viability, T/C [5]: 2.93%; viability, T/C [6]: 5.62%; viability, T/C [11]: 2.16%; viability, T/C [12]: 3.66%; viability, T/C [17]: 2.5%; viability, T/C [18]: 4.52%; viability, T/C [22]: 3.4%; viability, T/C [23]: 1.63%; viability, T/C [24]: 3.98%; viability, T/C [25]: 39.6%; viability, T/C [26]: 29.7%; viability, T/C [27]: 6.61%; viability, T/C [28]: 2.6%; viability, T/C [29]: 2.02%; viability, T/C [30]: 3.27%
3 | Nc1ncn(C2CC(O)C(CO)O2)c(=O)n1 (stereo not given) + Cc1ccccc1N=Nc1ccc(NC(=O)c2ccnn2C)c(C)c1 | > 1000 | > 1000 | > 1000 | > 1000 | > 1000 | 93.4 | 98.2 | 93.5 | 86.4 | 103 | 94.4 | 93 | 82.8 | 94 | 93 | 87.2 | 89 | 94.9 | 92.9 | 85.7 | viability, T/C [31]: 94.4%; viability, T/C [32]: 98.1%; viability, T/C [33]: 102%; viability, T/C [34]: 104%; viability, T/C [35]: 106%; viability, T/C [36]: 98.5%; viability, T/C [37]: 97.4%; viability, T/C [38]: 96.3%; viability, T/C [22]: 83.5%; viability, T/C [39]: 84.7%; viability, T/C [40]: 82.1%; viability, T/C [25]: 84.3%; viability, T/C [26]: 84.3%; viability, T/C [27]: 78%; viability, T/C [28]: 76%

Further lines, with some results ahead:

Row | IC50 (second compound 0.1 µM) [nM] | IC50 (second compound 0.316 µM) [nM] | IC50 (second compound 1 µM) [nM] | IC50 (second compound 3.16 µM) [nM] | IC50 (second compound 10 µM) [nM] | Compound | viability, T/C [1] [%] | viability, T/C [2] [%] | viability, T/C [3] [%] | viability, T/C [4] [%] | viability, T/C [7] [%] | viability, T/C [8] [%] | viability, T/C [9] [%] | viability, T/C [10] [%] | viability, T/C [13] [%] | viability, T/C [14] [%] | viability, T/C [15] [%] | viability, T/C [16] [%] | viability, T/C [19] [%] | viability, T/C [20] [%] | viability, T/C [21] [%] | other results
4 | 444 | 347 | 298 | 237 | 178 | CC1COCCN1c1cc(-c2ccnn2C)c2ccnc(-c3ccn[nH]3)c2n1 (stereo not given) + CC(CO)NC(=O)c1cc(-c2ccc(Cl)cc2)nn(-c2cnn(C)c2)c1=O | 93.2 | 94.2 | 61.4 | 22.8 | 78.5 | 95.3 | 52.5 | 21.1 | 88 | 84.9 | 47.9 | 17.6 | 90 | 76.5 | 41.2 | viability, T/C [31]: 94.2%; viability, T/C [32]: 85%; viability, T/C [33]: 94.5%; viability, T/C [34]: 87.4%; viability, T/C [35]: 97.3%; viability, T/C [36]: 89.4%; viability, T/C [37]: 85.7%; viability, T/C [38]: 91.8%; viability, T/C [22]: 17.7%; viability, T/C [39]: 85.5%; viability, T/C [40]: 94.7%; viability, T/C [25]: 78.5%; viability, T/C [26]: 68.9%; viability, T/C [27]: 32.2%; viability, T/C [28]: 19.8%
5 | > 10000 | > 10000 | > 10000 | > 10000 | > 10000 | COc1ccc([C@@H](O)c2cc(-c3ncnc4cc(N5CCOCC5)ccc34)c(F)cc2Cl)nn1 + CC(CO)NC(=O)c1cc(-c2ccc(Cl)cc2)nn(-c2cnn(C)c2)c1=O | 94.1 | 85.3 | 84.8 | 86.3 | 96.4 | 96.6 | 86 | 74.5 | 85.3 | 90.6 | 92.3 | 86.9 | 91.5 | 88.5 | 98.9 | viability, T/C [5]: 74.7%; viability, T/C [6]: 58.4%; viability, T/C [11]: 74.6%; viability, T/C [12]: 54.6%; viability, T/C [17]: 72.7%; viability, T/C [18]: 55.4%; viability, T/C [22]: 78.5%; viability, T/C [23]: 69.6%; viability, T/C [24]: 54%; viability, T/C [25]: 93.5%; viability, T/C [26]: 103%; viability, T/C [27]: 82%; viability, T/C [28]: 84.2%; viability, T/C [29]: 71%; viability, T/C [30]: 54.4%
6 | 468 | 463 | 505 | 434 | 368 | COc1cc(C2c3cc4c(cc3C(OC3OC5COC(C)OC5C(O)C3O)C3COC(=O)C23)OCO4)cc(OC)c1O (stereo not given) + Cc1ccccc1N=Nc1ccc(NC(=O)c2ccnn2C)c(C)c1 | 96.5 | 93.2 | 60.8 | 26.7 | 93.7 | 96.6 | 61 | 24.6 | 98.8 | 95.7 | 65 | 26.5 | 82.9 | 83.9 | 58.1 | viability, T/C [5]: 15.2%; viability, T/C [6]: 7.04%; viability, T/C [11]: 14.8%; viability, T/C [12]: 6.03%; viability, T/C [17]: 15.9%; viability, T/C [18]: 6.19%; viability, T/C [22]: 25.3%; viability, T/C [23]: 12.4%; viability, T/C [24]: 5.67%; viability, T/C [25]: 83%; viability, T/C [26]: 82.8%; viability, T/C [27]: 48.3%; viability, T/C [28]: 29.8%; viability, T/C [29]: 13.7%; viability, T/C [30]: 7.06%
